Experimental data published in patent US20120321584A1, “PROCESSES FOR PREPARING AMINE SALTS OF KMUP-3 AND USE THEREOF” (KAOHSIUNG MEDICAL UNIVERSITY, priority 2011, published 2012).

Experiments:
[1] = system: electrically-stimulated left atria; test: Electrically-stimulated beating left atrium, organ bath; format: cell-based, guinea-pig
Protocol: Organ bath experiments and tissue procurement. Guinea-pigs were killed by a blow on the head. Their hearts were quickly excised and trimmed of excess tissues. The atrium was carefully removed and placed at room temperature (20˜25° C.) in a Krebs solution of the following composition (mM): NaCl 113, KCl 4.8, CaCl2 2.2, KH2PO4 1.2, MgCl2 1.2, NaHCO3 25, dextrose 11.0; bubbled with a 95% O2+5% CO2 mixture, followed by separation of right and left atrium for subsequent experiments.
Quiescent left atria free of connective tissues were dissected and mounted in an organ bath under a resting tension of 0.5 g. Organs were bathed at 32.5° C. in aerated Krebs solution and electrically stimulated with 1 Hz at […] via two platinum electrodes placed at either side. The positive inotropic effect was measured by determining the cumulative concentration-response curves in the presence of KMUP-3 or KMUP-3 amine salt (0.1, 1.0, 10, 100 μM). To examine the possible involvement of NO and cAMP/cGMP in the action of KMUP-3 or KMUP-3 amine salt on electrically-stimulated beating atria, pre-incubated with a ROCK inhibitor Y27632 (1.0 μM), a β-adrenoceptor blocker propranolol (1.0 μM), eNOS inhibitors L-NAME (100 μM), 7-nitroindazole (100 μM) and 5-HT inhibitor ketanserin (1.0 μM) was performed for 15 min prior to the addition of KMUP-3 or KMUP-3 amine salt to measure the development of beating force and heart rate for 10 min.

[2] = system: eNOS; test: eNOS expression in neonatal myocytes, Western blotting; format: cell-based, rat; conditions: neonatal rat cardiomyocytes
Protocol: eNOS/p-NOS and cAMP/cGMP in neonatal myocytes. To determine the role of the NO/cGMP-pathway in heart, neonatal rat myocyte protein was extracted followed by Western blotting to measure the expression of eNOS, phosphorylated eNOS (p-eNOS), cAMP, and cGMP (FIG. 14 A-14 B and FIG. 15 A-15 B). KMUP-3 increased eNOS and p-eNOS in neonatal rat cardiomyocytes and the effect was reduced by L-NAME (100 μM)-pretreatment (FIG. 14A and FIG. 14B). KMUP-3 increased both cAMP and cGMP.
(§1) Protein extraction and Western blotting analysis. Briefly, after incubation with test agents in an organ bath, isolated beating atrium was frozen and pulverized to a fine powder at the temperature of liquid nitrogen. Atrium powders were then homogenized in protein extraction reagent (Pierce Biotechnology, Inc., Rockford, Ill.) by sonication. The samples were sonicated 10 sec three times and centrifuged at 13,000 rpm at 4° C. for 30 min. The protein concentrations of supernatants were determined by using bovine serum albumin as the standard. […] The intensity of the bands was measured by densitometry. eNOS or phosphorylated eNOS were extracted from cell culture of neonatal myocytes, PA ring and aortic ring (2-3 mm) of rats and measured by Western blotting analysis.

[3] = system: ROCKII; test: ROCKII expression in electrically-stimulated left atria, Western blotting; format: cell-based, guinea-pig
Protocol: Protein extraction and Western blotting analysis. Briefly, after incubation with test agents in an organ bath, isolated beating atrium was frozen and pulverized to a fine powder at the temperature of liquid nitrogen. Atrium powders were then homogenized in protein extraction reagent (Pierce Biotechnology, Inc., Rockford, Ill.) by sonication. The samples were sonicated 10 sec three times and centrifuged at 13,000 rpm at 4° C. for 30 min. The protein concentrations of supernatants were determined by using bovine serum albumin as the standard. The cell extracts were then boiled in a ratio of 4:1 with sample buffer (Tris 100 mM, pH 6.8; glycerol 20%, Sodium dodecyl sulfate (SDS) 4% and bromophenol blue 0.2%). Electrophoresis was performed using 10% SDS-PAGE and transferred to nitrocellulose membranes (Millipore Corp., Billerica, Mass.). The membrane was blocked with Tris-buffered saline (TBS; 20 mM Tris and 137 mM NaCl, pH 7.6) containing 0.1% Tween 20 (TTBS) and 5% nonfat milk at room temperature for 1 h, washed with TTBS, and then incubated overnight at 4° C. in the appropriate primary antibody for PKARI, RhoA, ROCKII, p-CIP-17, CPI-17 and PKG1α1β. The membranes were washed in TTBS before being incubated with horseradish peroxidase-conjugated antibody against mouse, goat, or rabbit IgG for 1 hr. Membranes were then washed in TTBS and developed with the enhanced chemiluminescence for the detection of the specific antigen. The intensity of the bands was measured by densitometry. eNOS or phosphorylated eNOS were extracted from cell culture of neonatal myocytes, PA ring and aortic ring (2-3 mm) of rats and measured by Western blotting analysis.
(§2) PK, ROCKII and CIP-17 expression and pretreatment of beating left atrium. To examine whether KMUP-3 or KMUP-3 amine salt affects the protein expression in beating atrium, PKA, ROCKII, PKG and phosphorylated CIP-17 was determined by Western blotting, respectively. […]

[4] = system: RhoA; test: RhoA expression in electrically-stimulated left atria, Western blotting; format: cell-based, guinea-pig; conditions: KMUP-3 0.1-10 μM
Protocol: as §1, with “standard. The cell extracts were then boiled in a ratio of 4:1 with sample buffer (Tris 100 mM, pH 6.8; glycerol 20%, Sodium dodecyl sulfate (SDS) 4% and bromophenol blue 0.2%). Electrophoresis was performed using 10% SDS-PAGE and transferred to nitrocellulose membranes (Millipore Corp., Billerica, Mass.).” for “standard.”
as §2

Compound: Cn1c(=O)c2c(ncn2CCN2CCN(c3ccc([N+](=O)[O-])cc3)CC2)n(C)c1=O [KMUP-3, 7-[2-[4-(4-nitrobenzene)piperazinyl]ethyl]-1,3-dimethylxanthine]
- Left atria contractility ([1]; KMUP-3 10 μM): increased
- Potency for increasing contractility compared with milrinone ([1]; electrical stimulation 1 Hz, P<0.05): more potent than milrinone
- eNOS expression [2]: increased
- ROCKII expression ([3]; FIG. 13A, concentration not given): significantly increased
- ROCKII expression ([3]; KMUP-3 0.1-10 μM): significantly increased
- RhoA expression [4]: significantly increased
